The values below are quoted from earlier work in US20040208853A1, “Method and device for sanitation using bacteriophages” (priority 2000, published 2004).

The data set concerns bacterial counts on fresh-cut fruits. Particulars: most effective chemical sanitizer.

On to `OO` [hydrogen peroxide], for which the “maximum reduction rate in bacterial counts on fresh-cut fruits” value is reported as 1.3 logs.
